In US20110136193A1, “METHOD FOR PRODUCING BUTANOL USING EXTRACTIVE FERMENTATION WITH OSMOLYTE ADDITION” (BUTAMAX(TM) ADVANCED BIOFUELS LLC, priority 2009, published 2011):

B1: sadB: butanol dehydrogenase from Achromobacter xylosoxidans (protein SEQ ID NO: 10), expressed in E. coli Mach 1 cells (protein)
chain: MKALVYHGDHKISLEDKPKPTLQKPTDVVVRVLKTTICGTDLGIYKGKNPEVADGRILGHEGVGVIEEVGESVTQFKKGDKVLISCVTSCGSCDYCKKQLYSHCRDGGWILGYMIDGVQAEYVRIPHADNSLYKIPQTIDDEIAVLLSDILPTGHEIGVQYGNVQPGDAVAIVGAGPVGMSVLLTAQFYSPSTIIVIDMDENRLQLAKELGATHTINSGTENVVEAVHRIAAEGVDVAIEAVGIPATWDICQEIVKPGAHIANVGVHGVKVDFEIQKLWIKNLTITTGLVNTNTTPMLMKVASTDKLPLKKMITHRFELAEIEHAYQVFLNGAKEKAMKIILSNAGAA
modifications: Achromobacter xyloxidans

Legend:
[1] = Kp of isobutanol in an oleyl alcohol/aqueous system (general statement); assay type: physicochemical; conditions: no added osmolyte
Text: Addition of organic extractants like oleyl alcohol into the fermentor during the production stage extracts butanol from the aqueous phase which alleviates its inhibitory effect on the microorganism resulting in higher rate and titer of isobutanol fermentation. Fermentation rate in this two phase system also slows down once the aqueous phase concentration of isobutanol reaches an inhibitory threshold level. In the presence of the extractant (oleyl alcohol) in the fermentor, the aqueous concentration of isobutanol is dictated by the partitioning coefficient (Kp) of isobutanol between the two phases. In the case of an oleyl alcohol/aqueous system, Kp is in the range of 3.5-4.5. A significant increase in isobutanol rate and titer can be achieved if Kp for isobutanol can be increased during fermentation such that the aqueous concentration of isobutanol drops below the inhibitory threshold level.

[2] = Partition coefficient (Kp) of isobutanol between oleyl alcohol extractant and sucrose-supplemented basal fermentation medium; assay type: physicochemical; conditions: oleyl alcohol / BFM, 30° C.
Method: The purpose of this Example was to evaluate the effect of sucrose concentrations in the fermentation medium on the partition coefficient (Kp) of isobutanol when oleyl alcohol was used as the extractant. The basal fermentation medium (BFM) typically used in E. coli fermentations was used as the fermentation medium in this Example.
The following experimental procedure was used to generate the data in Table 3. In these Kp measurement experiments, a specified amount of sucrose was added as an osmolyte to the basal fermentation medium. To 30 mL of the sucrose-supplemented BFM, 10 mL of isobutanol rich oleyl alcohol (OA) extractant containing 168 g/L of isobutanol was added and mixed vigorously for 4 and 8 hours at 30° C. with shaking at 250 rpm in a table top shaker (Innova 4230, New Brunswick scientific, Edison, N.J.) to reach equilibrium between the two phases. The aqueous and organic phases in each flask were separated by decantation. The aqueous phase was centrifuged (2 minutes on 13,000 rpm with an Eppendorf centrifuge model 5415R) to remove residual extractant phase and the supernatant analyzed for glucose and isobutanol by HPLC.
Partition coefficients (Kp) for isobutanol distribution between the organic and aqueous phases were calculated from the known amount of isobutanol added to the flask and the isobutanol concentration data measured in the aqueous phase. The concentration of isobutanol in the extractant phase was determined by mass balance. The partition coefficient was determined as the ratio of isobutanol concentration in the organic and the aqueous phase, i.e., Kp=[Isobutanol]Organic phase/[isobutanol]Aqueous phase. Each data point corresponding to a specified level of sucrose as shown in Table 3 was repeated twice and values for Kp reported as the average of the two flasks.

[3] = Activity of the enzyme expressed from the sadB gene in cell-free extracts; assay type: biochemical; conditions: cell-free extracts of E. coli Mach1/pTrc99a::sadB; isobutyraldehyde as the standard
Method: The sadB coding region was then cloned into the vector pTrc99a (Amann et al., Gene 69: 301-315, 1988). The pCR4Blunt::sadB was digested with EcoRI, releasing the sadB fragment, which was ligated with EcoRI-digested pTrc99a to generate pTrc99a::sadB. This plasmid was transformed into E. coli Mach 1 cells and the resulting transformant was named Mach1/pTrc99a::sadB. The activity of the enzyme expressed from the sadB gene in these cells was determined to be 3.5 mmol/min/mg protein in cell-free extracts when analyzed using isobutyraldehyde as the standard.

Molecule	partitioning coefficient (Kp) of isobutanol between the two phases [1]	Kp ([2]; sucrose added 0 moles/L, total sugars 0.17 moles/L)	Kp ([2]; sucrose added 0.03 moles/L, total sugars 0.20 moles/L)	Kp ([2]; sucrose added 0.09 moles/L, total sugars 0.26 moles/L)	Kp ([2]; sucrose added 0.17 moles/L, total sugars 0.34 moles/L)	Kp ([2]; sucrose added 0.26 moles/L, total sugars 0.43 moles/L)	Kp ([2]; sucrose added 0.33 moles/L, total sugars 0.50 moles/L)	Kp ([2]; sucrose added 0.51 moles/L, total sugars 0.68 moles/L)	Kp ([2]; sucrose added 0.67 moles/L, total sugars 0.84 moles/L)	Kp ([2]; sucrose added 1.00 moles/L, total sugars 1.17 moles/L)	Kp ([2]; sucrose added 1.33 moles/L, total sugars 1.50 moles/L)	Kp ([2]; sucrose added 2.00 moles/L, total sugars 2.17 moles/L)	activity of the enzyme expressed from the sadB gene [3]
CC(C)CO [isobutanol]	3.5-4.5	4.35	4.44	4.41	4.60	4.69	5.09	5.21	5.85	6.85	7.77	10.69	
B1													3.5 mmol/min/mg protein
